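A five-concentration, 48-hour dose response in 96-well plates underlies each endpoint, interpolated linearly between surrounding concentrations. GI50 marks 50% less growth.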 Activity calls are given as the source filed them. Rule as the data show it: active = GI50 up to about 1.1 µM and inactive = higher.
Key:
Assay in all cases: DTP human tumour cell line panel, 48 h
A498 = system: A498
A549 = system: A549
COLO 205 = system: COLO 205
HCC 2998 = system: HCC 2998
HOP-62 = system: HOP-62
MDA-MB-231 = system: MDA-MB-231
MOLT-4 = system: MOLT-4
NCI-H23 = system: NCI-H23
NCI-H460 = system: NCI-H460
NCI/ADR-RES = system: NCI/ADR-RES
RPMI-8226 = system: RPMI-8226
RXF 393 = system: RXF 393
SK-MEL-28 = system: SK-MEL-28
SK-MEL-5 = system: SK-MEL-5
SK-OV-3 = system: SK-OV-3
SN12C = system: SN12C
SNB-75 = system: SNB-75
SW-620 = system: SW-620
T47D = system: T47D
UACC-62 = system: UACC-62

Measured: GI50

O=C1OC(=O)C2C1C(c1ccccc1[N+](=O)[O-])C=C(c1ccco1)N2c1ccncc1 (stereo not given)
inactive: A498 12.2 µM | A549 13.6 µM | COLO 205 7.98 µM | HCC 2998 1.86 µM | HOP-62 15.3 µM | MDA-MB-231 13 µM | MOLT-4 1.88 µM | NCI-H23 11.3 µM | NCI-H460 12.1 µM | NCI/ADR-RES 18.8 µM | RPMI-8226 1.87 µM | RXF 393 4.67 µM | SK-MEL-28 8.34 µM | SK-MEL-5 4.09 µM | SK-OV-3 17.6 µM | SN12C 8.95 µM | SNB-75 14 µM | SW-620 6.15 µM | T47D 4.97 µM | UACC-62 16.9 µM

Clc1nc(Cl)c(Cl)c(Cl)n1
inactive: A498 19.4 µM | A549 19.8 µM | COLO 205 8.57 µM | HCC 2998 18.7 µM | HOP-62 19.6 µM | MDA-MB-231 18 µM | MOLT-4 6.21 µM | NCI-H23 18.5 µM | NCI-H460 21.6 µM | NCI/ADR-RES 23.4 µM | RPMI-8226 43.3 µM | RXF 393 18.3 µM | SK-MEL-28 19.6 µM | SK-MEL-5 17.6 µM | SK-OV-3 16.6 µM | SN12C 20.6 µM | SNB-75 17.8 µM | SW-620 6.85 µM | T47D 18.2 µM | UACC-62 18.5 µM

— ChEMBL document CHEMBL1201862, “PubChem BioAssay data set” (2004)
